The results in this text go back to patent US20240059755A1, “NANOLIPOPROTEIN-POLYPEPTIDE CONJUGATES AND COMPOSITIONS, SYSTEMS, AND METHODS USING SAME” (Genentech, Inc., priority 2020, published 2024).

The subject of this test is trypsin. As to the kind of experiment: Trypsin enzymatic assay (L-Arg-AMC substrate). In kind it is biochemical.

Procedure: Briefly, the peptide NLP conjugates were incubated at the indicated concentration with trypsin (2 nM) for 30 min at room temperature. The substrate L-Arginine-7-amido-4-methylcoumarin (L-Arg-AMC) (75 μM) was added to the mixture and the proteolytic activity was measured immediately. Samples were run in triplicate and repeated twice. The data were analyzed using KaleidaGraph software.

In the case of `CCCCCCCCCCCCCCCC(=O)NCCCC[C@H](N)C(=O)NCC(=O)N[C@@H](CO)C(=O)NCC(=O)N[C@@H](CO)C(=O)NCC(=O)N[C@H]1CSSC[C@@H]2NC(=O)CNC(=O)[C@H](C)NC(=O)[C@H](CC(C)C)NC(=O)[C@@H]3CSSC[C@@H](C(=O)NCC(=O)O)NC(=O)[C@H](Cc4ccccc4)NC(=O)CNC(=O)[C@H](CC(N)=O)NC(=O)[C@@H]4CCCN4C(=O)CNC(=O)[C@H](CSSC[C@H](NC(=O)[C@H](CCCNC(=N)N)NC(=O)[C@H](CCSC)NC(=O)[C@H](CC(C)C)NC(=O)[C@H]([C@@H](C)CC)NC(=O)[C@H](CCCNC(=N)N)NC(=O)[C@@H]4CCCN4C1=O)C(=O)N[C@@H](CCCCN)C(=O)N[C@@H](CCC(N)=O)C(=O)N[C@@H](CC(=O)O)C(=O)N[C@@H](CO)C(=O)N[C@@H](CC(=O)O)C(=O)N3)NC(=O)[C@H](C(C)C)NC2=O` [CKP-C16], the trypsin inhibitory activity entry is listed as “inhibitory potency”.
